Assay results reported in PubChem BioAssay AID1117324 (Cheminformatics & Chemogenomics Research Group (CCRG), …, 2015).
The source made the active and inactive calls. How the calls were made is not given here.

Test system: VEGF-stimulated ADSC/ECFC co-culture, nuclear area imaging
Test: nuclear area loss in endothelial-stromal co-culture, dose response, cell-based, VEGF stimulation, IC50 (AID 1117324)

Row | SMILES | IC50
1 | CC12CCC(CC1)C(C)(C)O2 | > 10 µM (inactive)
2 | C[n+]1cc2c3c(ccc2c2ccc4cc5c(cc4c21)OCO5)OCO3 | 0.97 µM
3 | CCCCCCCCOC(=O)c1ccccc1C(=O)OCCCCCCCC | > 10 µM (inactive)
4 | COc1cc(NCc2ccc3nc(N)nc(N)c3c2C)cc(OC)c1OC | > 10 µM (inactive)
5 | Oc1c(Cl)cc(Cl)c2cccnc12 | > 10 µM (inactive)
6 | COC(=O)Nc1nc2ccc(Sc3ccccc3)cc2[nH]1 | > 10 µM (inactive)
7 | Cc1ccc(Nc2c(F)cccc2Cl)c(CC(=O)O)c1 | > 10 µM (inactive)
8 | CCN(CC)CCCC(C)Nc1c2ccc(Cl)cc2nc2ccc(OC)cc12 (stereo not drawn) | > 10 µM (inactive)
9 | CCC(C)(C)C(=O)O[C@H]1C[C@@H](C)C=C2C=C[C@H](C)[C@H](CC[C@@H]3C[C@@H](O)CC(=O)O3)[C@H]21 | 5.13 µM (inactive)
10 | CCN(CC)CCNC(=O)c1c(C)[nH]c(/C=C2\C(=O)Nc3ccc(F)cc32)c1C | > 10 µM (inactive)
11 | CCCCCCCCCCCCCCCC[N+](C)(C)CCN(Cc1ccc(OC)cc1)c1ncccn1 | > 10 µM (inactive)
12 | Cc1cc(OCCOCC[N+](C)(C)Cc2ccccc2)ccc1C(C)(C)CC(C)(C)C | 8.7 µM (inactive)
13 | O=C(O)CCC(=O)OC[C@@H](NC(=O)C(Cl)Cl)[C@H](O)c1ccc([N+](=O)[O-])cc1 | > 10 µM (inactive)
14 | CCCCCCCCCCCCCC[N+](C)(C)Cc1ccccc1 | 8.36 µM (inactive)
15 | CC(C)=CCOc1ccc(/C=C/C(=O)c2ccc(OCC=C(C)C)cc2OCC(=O)O)cc1 | > 10 µM (inactive)
16 | O=C(Nc1ccc(S(=O)(=O)N2CCOCC2)cc1)c1cc(Cl)ccc1NS(=O)(=O)c1ccc(Cl)s1 | > 10 µM (inactive)
17 | CCCCCCC[N+](CC)(CC)CCCCc1ccc(Cl)cc1 | > 10 µM (inactive)
18 | O=c1[nH]c(=O)n([C@H]2C[C@H](O)[C@@H](CO)O2)cc1Br | > 10 µM (inactive)
19 | COc1cc2nc(N3CCN(C(=O)C4COc5ccccc5O4)CC3)nc(N)c2cc1OC (stereo not drawn) | > 10 µM (inactive)
20 | O=C(CCN1CCC(c2ccccc2)C1)c1ccc2c(c1)OCCO2 (stereo not drawn) | > 10 µM (inactive)
21 | OCCN1CCN(CCCN2c3ccccc3Sc3ccc(Cl)cc32)CC1 | > 10 µM (inactive)
22 | CCCCCCCCCCCCCCCC[n+]1ccccc1 | 3.01 µM
23 | CCCCCCCCOc1ccccc1C(=O)Nc1ccc(C(=O)OCC[N+](C)(CC)CC)cc1 | 8.47 µM (inactive)
24 | COc1cc(S(N)(=O)=O)cc(C(=O)O)c1OC | > 10 µM (inactive)

Row | SMILES | IC50
25 | N[C@@H](Cc1ccc(N(CCCl)CCCl)cc1)C(=O)O | > 10 µM (inactive)
26 | O=C1c2ccccc2C(=O)C1C(=O)C(c1ccccc1)c1ccccc1 | > 10 µM (inactive)
27 | Cc1c(O)cc2c(c1C)O[C@](C)(CCC[C@H](C)CCC[C@H](C)CCCC(C)C)CC2 | > 10 µM (inactive)
28 | COc1ccccc1N1CCN(CC(O)COc2cc(OC)c(OC)c(OC)c2)CC1 (stereo not drawn) | > 10 µM (inactive)
29 | Cc1cc(C2CCCCC2)n(O)c(=O)c1 | > 10 µM (inactive)
30 | CCCCCCCC(=O)OCC(COC(=O)CCCCCCC)OC(=O)CCCCCCC | > 10 µM (inactive)
31 | O=c1oc2c(O)c(O)cc3c(=O)oc4c(O)c(O)cc1c4c23 | > 10 µM (inactive)
32 | C=C(C)[C@H]1Cc2c(ccc3c2O[C@@H]2COc4cc(OC)c(OC)cc4[C@@H]2C3=O)O1 | > 10 µM (inactive)
33 | COC(=O)Nc1nc2ccc(C(=O)c3cccs3)cc2[nH]1 | > 10 µM (inactive)
34 | CCN[C@@H](C)Cc1cccc(C(F)(F)F)c1 | > 10 µM (inactive)
35 | CCCCCCCCCCCCCCCCNc1ccc(C(=O)O)cc1 | > 10 µM (inactive)
36 | CCCCC(CC)COC(=O)C(C#N)=C(c1ccccc1)c1ccccc1 (stereo not drawn) | 3.29 µM
37 | Cc1cccc(Nc2cc(Cl)nc(SCC(=O)O)n2)c1C | > 10 µM (inactive)
38 | CCCCC1C(=O)N(c2ccccc2)N(c2ccc(O)cc2)C1=O (stereo not drawn) | 8.83 µM (inactive)
39 | C[S+](CC[C@H](N)C(=O)O)C[C@H]1O[C@@H](n2cnc3c(N)ncnc32)[C@H](O)[C@H]1O (stereo partly drawn) | > 10 µM (inactive)
40 | O=C(O)C1(C(=O)O)CCC1.[NH2-].[NH2-].[Pt+2] | > 10 µM (inactive)
41 | NC(=O)C1(N2CCCCC2)CCN(CCCN2c3ccccc3CCc3ccc(Cl)cc32)CC1 | > 10 µM (inactive)
42 | Cc1c(N)cccc1C(F)(F)F | > 10 µM (inactive)
43 | COC(=O)Nc1nc2ccc(S(=O)c3ccccc3)cc2[nH]1 (stereo not drawn) | > 10 µM (inactive)
44 | Cc1cc(-c2ccc(N=Nc3c(S(=O)(=O)O)cc4cc(S(=O)(=O)O)cc(N)c4c3O)c(C)c2)ccc1N=Nc1c(S(=O)(=O)O)cc2cc(S(=O)(=O)O)cc(N)c2c1O | > 10 µM (inactive)
45 | CC(=O)Nc1ccn(C2COC(COC(=O)c3ccccc3)O2)c(=O)n1 (stereo not drawn) | > 10 µM (inactive)
46 | O=C1NCCN1CCN1CCC(c2cn(-c3ccc(F)cc3)c3ccc(Cl)cc23)CC1 | > 10 µM (inactive)
47 | CCN(CC)C(=O)/C(C#N)=C/c1cc(O)c(O)c([N+](=O)[O-])c1 | > 10 µM (inactive)
48 | COC(=O)C1=C(C)NC(C)=C(C(=O)O[C@@H]2CCCN(Cc3ccccc3)C2)[C@@H]1c1cccc([N+](=O)[O-])c1 | > 10 µM (inactive)

Row | SMILES | IC50
49 | CC(=O)Oc1ccc(C2(c3ccc(OC(C)=O)cc3)Oc3ccccc3NC2=O)cc1 | > 10 µM (inactive)
50 | NC(=NCCCCCCN=C(N)/N=C(\N)Nc1ccc(Cl)cc1)/N=C(\N)Nc1ccc(Cl)cc1 | > 10 µM (inactive)
51 | CC(C)=CCNc1ncnc2c1ncn2[C@@H]1O[C@H](CO)[C@@H](O)[C@H]1O | > 10 µM (inactive)
52 | CCCCCCCCCCCC[N+](C)(C)Cc1ccccc1 | 6.93 µM (inactive)
53 | CC(=O)c1ccc(OCC(=O)N2CCCCC2)cc1 | > 10 µM (inactive)
54 | Cc1ccccc1C(=O)Nc1ccc(C(=O)N2CCCC(N(C)C)c3ccccc32)cc1 (stereo not drawn) | > 10 µM (inactive)
55 | CN1CCN(CCCN2c3ccccc3Sc3ccc(S(=O)(=O)N(C)C)cc32)CC1 | > 10 µM (inactive)
56 | CC=CC1C(C(=O)OCc2c(F)c(F)c(COC)c(F)c2F)C1(C)C (stereo not drawn) | > 10 µM (inactive)
57 | Cc1cc(O)c2c(O)c3c(O)cccc3cc2c1 | > 10 µM (inactive)
58 | C#C[C@]1(OC(C)=O)CC[C@H]2[C@@H]3CCC4=C/C(=N/O)CC[C@@H]4[C@H]3CC[C@@]21CC | > 10 µM (inactive)
59 | CN1CC[C@H](c2c(O)cc(O)c3c(=O)cc(-c4ccccc4Cl)oc23)[C@H](O)C1 | 0.328 µM
60 | O=C(O)C1CCC1 | > 10 µM (inactive)
61 | COCC(=O)O[C@]1(CCN(C)CCCc2nc3ccccc3[nH]2)CCc2cc(F)ccc2[C@@H]1C(C)C | > 10 µM (inactive)
62 | CCCCCCCCCCCCCCNCCO | 9.19 µM (inactive)
63 | COc1ccc([C@@H]2Sc3ccccc3NC(=O)[C@@H]2O)cc1 | > 10 µM (inactive)
64 | CCCCC(CC)CN=C(N)NC(N)=NCCCCCCN=C(N)NC(N)=NCC(CC)CCCC (stereo not drawn) | > 10 µM (inactive)
65 | COc1ccc(/C=C/C(=O)c2ccc(OC)cc2OC)cc1 | > 10 µM (inactive)
66 | CCCCN(CCCC)CCC(O)c1cc2c(Cl)cc(Cl)cc2c2cc(C(F)(F)F)ccc12 (stereo not drawn) | > 10 µM (inactive)
67 | CN(C)c1ccc(C(=C2C=CC(=[N+](C)C)C=C2)c2ccccc2)cc1 | 1.72 µM
68 | CCCCc1ccc2nc(NC(=O)OC)[nH]c2c1 | > 10 µM (inactive)
69 | CN(C)C(=S)SSC(=S)N(C)C | > 10 µM (inactive)
70 | COc1cc([C@@H]2c3cc4c(cc3[C@@H](O[C@@H]3O[C@@H]5CO[C@@H](C)O[C@@H]5[C@H](O)[C@@H]3O)[C@H]3COC(=O)[C@H]23)OCO4)cc(OC)c1O | 0.967 µM
71 | C/C=C(/C(=C/C)c1ccc(OC(C)=O)cc1)c1ccc(OC(C)=O)cc1 | > 10 µM (inactive)
72 | Oc1ccc(Cl)cc1Cc1cc(Cl)ccc1O | 6 µM (inactive)

Row | SMILES | IC50
73 | CC[C@@]1(O)C(=O)OCc2c1cc1n(c2=O)Cc2c-1nc1ccccc1c2/C=N/OC(C)(C)C | 0.799 µM
74 | CCOC(=O)[C@H](CCc1ccccc1)N[C@@H](C)C(=O)N1Cc2cc(OC)c(OC)cc2C[C@H]1C(=O)O | > 10 µM (inactive)
75 | Cc1cccc(C)c1NC(=O)CN1CCN(CCCC(c2ccc(F)cc2)c2ccc(F)cc2)CC1 | 9.37 µM (inactive)
76 | COc1ccc(-c2ccc3cc(C(=O)O)ccc3c2)cc1C12CC3CC(CC(C3)C1)C2 | > 10 µM (inactive)
77 | O=S(c1cc(Cl)cc(Cl)c1O)c1cc(Cl)cc(Cl)c1O | > 10 µM (inactive)
78 | CN1CCN(CCCN2c3ccccc3Sc3ccc(C(F)(F)F)cc32)CC1 | > 10 µM (inactive)
79 | Cc1c(C(=O)NN2CCCCC2)nn(-c2ccc(Cl)cc2Cl)c1-c1ccc(Cl)cc1 | > 10 µM (inactive)
80 | CCCOC(=O)c1cc(O)c(O)c(O)c1 | > 10 µM (inactive)
81 | CCOC(=O)C1=C[C@]2(CC)CCCN3CCc4c(n1c1ccccc41)[C@@H]32 | > 10 µM (inactive)
82 | COC(=O)c1nc(Cl)c(Cl)nc1N | 6.8 µM (inactive)
83 | CC(=O)Oc1cccc2c1C(=O)c1c(OC(C)=O)cc(C(=O)O)cc1C2=O | > 10 µM (inactive)
84 | Oc1c(Cl)cc(Cl)cc1Sc1cc(Cl)cc(Cl)c1O | > 10 µM (inactive)
85 | CCCCCCCCCCC[C@@H](C[C@@H]1OC(=O)[C@H]1CCCCCC)OC(=O)[C@H](CC(C)C)NC=O | > 10 µM (inactive)
86 | CCOc1ccc2nc3cc(N)ccc3c(N)c2c1 | > 10 µM (inactive)
87 | COC(=O)CCCCC(CCSS/C(CCO)=C(\C)N(C=O)Cc1cnc(C)nc1N)SC(C)=O (stereo not drawn) | > 10 µM (inactive)
88 | CCCCCCCCCCCCCC[N+](C)(C)C | 6.68 µM (inactive)
89 | CCC1Nc2cc(Cl)c(S(N)(=O)=O)cc2S(=O)(=O)N1 (stereo not drawn) | > 10 µM (inactive)
90 | CC[C@@]1(O)C(=O)OCc2c1cc1n(c2=O)Cc2cc3c(CN(C)C)c(O)ccc3nc2-1 | 0.025 µM
91 | O=C(CCCN1CCC(O)(c2cccc(C(F)(F)F)c2)CC1)c1ccc(F)cc1 | > 10 µM (inactive)
92 | O=c1[nH]c(=O)n([C@H]2C[C@H](O)[C@@H](CO)O2)cc1F | > 10 µM (inactive)
93 | CC(=O)O[C@@]12CO[C@@H]1C[C@H](O)[C@@]1(C)C(=O)[C@H](O)C3=C(C)[C@@H](OC(=O)[C@H](O)[C@@H](NC(=O)OC(C)(C)C)c4ccccc4)C[C@@](O)([C@@H](OC(=O)c4ccccc4)[C@H]21)C3(C)C | > 10 µM (inactive)
